System: Septoria tritici
Assay: Growth assay with Septoria tritici as indicator fungus (photometric)
Type: cell-based
Details: active ingredient concentration in the spray mixture 1 ppm
Method: A growth assay was carried out with Septoria tritici as indicator fungus. The fungal growth was measured photometrically by the increase in absorption or light scattering as a function of mycelium density. The data obtained were converted into percent growth inhibition, the absorption of the untreated controls being defined as 0% inhibition and that of a killed spore suspension as reference as 100% inhibition.
The expected efficacies of combinations of active ingredients were determined using Colby's formula (Colby, S. R. (Calculating synergistic and antagonistic responses of herbicide combinations”, Weeds, 15, pp. 20-22, 1967)) and compared with the observed efficacies.
E=x+y−x·y/100 • E expected efficacy, expressed in % of the untreated control, when using the mixture of the active ingredients A and B at the concentrations a and b • x efficacy, expressed in % of the untreated control, when using the active ingredient A at the concentration a • y efficacy, expressed in % of the untreated control, when using the active ingredient B at the concentration b

Structure (SMILES): COC(=O)N(OC)c1ccccc1COc1ccn(-c2ccc(Cl)cc2)n1 [II, Pyraclostrobin]
- Growth inhibition: 57%

Reference: patent US20080004177A1, “Novel Copper-Containing Formulations” (priority 2003, published 2008)
